B1: Wnt-3a: conditioned medium of Wnt3a ligand, the canonical Wnt ligand (protein, UniProt P56704 19-352, looked up)
Protein Wnt-3a: SYPIWWSLAVGPQYSSLGSQPILCASIPGLVPKQLRFCRNYVEIMPSVAEGIKIGIQECQHQFRGRRWNCTTVHDSLAIFGPVLDKATRESAFVHAIASAGVAFAVTRSCAEGTAAICGCSSRHQGSPGKGWKWGGCSEDIEFGGMVSREFADARENRPDARSAMNRHNNEAGRQAIASHMHLKCKCHGLSGSCEVKTCWWSQPDFRAIGDFLKDKYDSASEMVVEKHRESRGWVETLRPRYTYFKVPTERDLVYYEASPNFCEPNPETGSFGTRDRTCNVSSHGIDGCDLLCCGRGHNARAERRREKCRCVFHWCCYVSCQECTRVYDVHTCK
modifications: conditioned medium

Tests used:
[1] = system: HEK293T cells; test: TOPflash/FOPflash luciferase reporter assay; format: cell-based
Procedure: 150,000 HEK293T cells were seeded in triplicate per condition and kept for 24 hours at 37° C. with 5% CO2. The cultures were transfected with TOPflash or FOPflash (400 ng), which are firefly-luciferase reporter DNA constructs (Milipore), using LipofectAMINE 2000 (Invitrogen). To control for transfection pRL-TK (10 ng) was included in all transfections. […] Values were normalized by the renilla value from the same well. To statistically compare treatments ANOVA was used.

[2] = system: Wnt target genes in cultured hippocampal neurons; test: PCR array of Wnt target genes in hippocampal neurons; format: cell-based, rat
Procedure: Primary culture of rat hippocampal neurons. […] PCR-ARRAY. RNA from hippocampal neurons was extracted using Trizol. Quantification and purity of RNA preparations were checked by absorbance using Nanodrop ND-2000. Only preparations with a 260/280 nm ratio ≧1.8, a 260/230 nm ratio ≧1.7 and no sign of RNA degradations, verified by agarose gel electrophoresis with Gel Red™ were used. Genomic DNA was degraded. Using RT2First-Strand cDNA Synthesis kit (SuperArray), 1 ng total RNA was reverse transcribed and then real-time PCR was performed by adding cDNA directly to PCR Master Mix, containing SYBR Green and ROX. The mixtures were then aliquoted into a 96-well PCR array plates, which profiles the expression of 84 Wnt target genes from rat. The PCR was run on ABI StepOnePlus, with 1 cycle of 10 min at 95° C. followed by 40 cycles of 15s at 95° C. and 1 min at 60° C. […] Treatment of neuronal cultures. Primary hippocampal cultures of neurons 14 DIV were washed twice in neurobasal medium and maintained for 1 hour. Next ANDRO (10 μM) and 6-BIO (10 μM) were added to different time periods.

[3] = system: Wnt/β-catenin pathway in hippocampal slices; test: Wnt pathway mechanism in hippocampal slices (sFRP, Dkk-1, Dvl-3 mobility shift, time course); format: cell-based, mice; conditions: for time at which total levels of β-catenin increased: slices from 2 month-old wild-type mice, 5 μM ANDRO, Wnt3a conditioned medium or 10 μM 6-B10
Procedure: Slice preparation. […] Transverse slices (250-300 μm) from the dorsal hippocampus were cut under oxygen-saturated cold artificial cerebrospinal fluid using a Vibroslice microtome (VSL, World Precision Instruments, Inc WPI, Sarasota, Fla.). After obtained, slices were incubated in ACSF for at least than one hour at room temperature, in order to stabilize activity. In every moment during dissection, slicing and experimentation slices were oxygenated with 95% oxygen-5% carbon dioxide.
Briefly, tissues were homogenized in RIPA buffer (10 mM Tris-Cl, pH 7.4, EDTA 5 mM, 1% NP-40, 1% sodium deoxycholate, and 1% SDS) supplemented with a protease inhibitor mixture (1 mM PMSF, 2 μg/mL aprotinin, 1 μg/mL pepstatin and 10 μg/mL benzamidine) and phosphatase inhibitors (25 mMNaF, 100 mM Na3VO4, 1 mM EDTA and 30 μM Na4P207) using a Potter homogenizator and then passed sequentially through different caliber syringes. […] Protein concentration was determined using the BCA Protein Assay Kit (Pierce). Samples were resolved by […] 10% SDS-PAGE and transferred to a PVDF membrane. The reactions were followed by incubation with anti-mouse, anti-goat or anti-rabbit IgG peroxidase conjugated (Pierce, Rockford, Ill.) and developed using an ECL kit (Western Lightning Plus ECL, PerkinElmer).

[4] = system: CA3-CA1 connections in hippocampal slices; test: Electrophysiology (fEPSP, PPF, LTP, LTD) in Wt hippocampal slices; format: cell-based, mice; conditions: hippocampal slices, LFS
Procedure: Slices were transferred to an experimental chamber (2 ml), superfused (3 ml/min, at 20-22° C.) with gassed ACSF and visualized by trans-illumination with a binocular microscope (MSZ-10, Nikon, Melville, N.Y.). […] The stimulation was in the Stratum Radiatum within 100-200 μm from the recording site. The paired pulse facilitation index was calculated by ((R2−R1)/R1), where R1 and R2 were the peak amplitudes of the first and second fEPSP respectively. To generate LTP we used Theta Burst Stimulation (TBS) consisting of 5 trains of stimulus with an inter-train interval of 20 s. Each train consisted of 10 bursts at 5 Hz and each burst having 4 pulses at 100 Hz. To generate LTD we used Low Frequency Stimulation (LFS) consisting in 900 paired pulses at 1 Hz. Recordings were filtered at 2.0-3.0 kHz, sampled at 4.0 kHz using an A/D converter, and stored with pClamp 10 (Molecular Devices). Evoked postsynaptic responses were analyzed off-line, using an analysis software (pClampfit, Molecular Devices), which allowed visual detection of events, computing only those events that exceeded and arbitrary threshold.

| Molecule | FOPflash reporter activity ([1]; 10 μM, 24 h) | TOPflash reporter activity ([1]; 10 μM, 24 h) | increase of luciferase reporter over control ([1]; HEK293T, TOPflash) [fold] | Cdh-1 gene expression [2] | number of Wnt target genes specifically modulated ([2]; 9 h, of the 86 genes analyzed) [genes] | number of modulated Wnt target genes shared by both treatments ([2]; 9 h, of the 86 genes analyzed) | speed of increase in GSK3β pSer-9 and decrease in pTyr-216 ([3]; compared to Wnt-3a treatment) | time at which total levels of β-catenin increased [3] [min] | induction of LTD [4] | inhibition of β-catenin accumulation by Wnt antagonists sFRP and Dkk-1 ([3]; antagonist 15 min prior, 5 μM ANDRO or Wnt3a conditioned medium for 1 h) |
| --- | --- | --- | --- | --- | --- | --- | --- | --- | --- | --- |
| O=C1Nc2cc(Br)ccc2/C1=C1/Nc2ccccc2/C1=N\O [6-B10, 6-bromoindirubin-3′-oxime, reference compound] | not in the FOPflash | significant increase in the TOPflash | ~6 | does not by 6-B10 | 4 | 4 | faster | 15 | complete inhibition of the induction of LTD | – |
| B1 | – | – | – | – | – | – | – | 45 | – | inhibit the accumulation of β-catenin in the presence of Wnt3a |

Reference: patent US20150352075A1, “Treatment of Alzheimer's and Cognitive Impairment With Andrographolides” (INNOBIOSCIENCE, LLC, priority 2013, published 2015)
